Results published in patent US20210308077A1, “COMBINATIONS INCLUDING BETA-ADRENORECEPTOR AGONISTS FOR TREATMENT OF PARKINSON`S DISEASE AND MOVEMENT DISORDERS” (The Brigham and Women`s Hospital, Inc., priority 2017, published 2021).

Assays:
[1] = test system: SNCA mRNA; experiment: endogenous SNCA mRNA expression in SK-N-MC neuroblastoma cells (screening, replication, confirmation; qPCR); assay type: cell-based, human
Protocol: Human neuroblastoma SK-N-MC cells were acquired from American Type Culture Collection (ATCC). Cells were cultured at 37° C. in 5% CO2 in DMEM/F12 supplemented with 10% fetal bovine serum (FBS) and 100 units per ml penicillin and streptomycin. The drug library was obtained from the Laboratory for Drug Discovery in Neurodegeneration (LDDN), Harvard NeuroDiscovery Center, Boston, Mass. The drug library consisted of approximately 1,126 small molecules. About 586 of the compounds were from Prestwick Chemical's (Illkirch, France) library, a unique collection of mostly off-patent small organic molecules, 90% being marketed drugs and 10% bioactive alkaloids or related substances. About 400 compounds were from the SPECS collection (available on the world wide web at.specs.net). 140 compounds generated in house by the LDDN were also included in the library. Compounds for the screening were stored as DMSO stocks. All drugs used for Confirmation Assay were purchased from Sigma (St. Louis, Mo.).
Approximately 2×10^4low passage SK-N-MC cells were seeded per well in 384-well cell culture plates for 24 hours. Compounds were then transferred into each well (final concentration 1 μM) by using a BioMekFX (Beckman Coulter) equipped with a 384-channel pipetting head. After 48 hours in cell culture incubator, cells were washed once in cold phosphate-buffered saline (PBS) by using BioTek ELx405 select CW plate washer and then lysed at room temperature (22-24° C.) with lysis buffer (Applied Biosystems) using the Cell-to-CT procedures according to the manufacturer's instructions (Applied Biosystems). After 5 min, lysis was terminated by incubation with stop solution (Applied Biosystems). 11 μL of each lysate were transferred to 384-well plates for RT in a total volume of 25 μl. 4 μL of RT reaction were then transferred to new 384-well plates for qPCR.
Using the Cell-to-CT kit (Applied Biosystems) we performed expression analysis directly from SK-N-MC neuroblastoma cells cultured in 384-well plates through in situ cDNA synthesis. In this miniaturized assay, high copy numbers of SNCA and of endogenous controls were detected as indicated by raw cycle threshold values of 25.11±0.02 (mean CT value±SEM) and 20.2±0.02 for SNCA and Ubiquitin C (UBC), respectively. Technical variation (using identical cDNA loaded in multiple wells) and biological variation (cDNA synthesized in situ in each of 384 wells of cultured SK-N-MC cells treated with DMSO) were low, with coefficients of variation of 1% and 5.2% respectively. At least ten DMSO-treated controls were included on each 384-well plate as negative external control and calibrator. An equal amount of cDNA derived from Universal Reference RNA was spotted on all plates as plate-to-plate control. Control reactions lacking template or reverse transcription were assayed for contamination with genomic DNA.
41 compounds were forwarded into the Replication Assay. For each compound eight wells were treated with drug and compared to eight wells treated with DMSO alone. The Cell-to-CT procedure was employed using two new reference genes, ribosomal protein L13 (RPL13) and glucuronidase beta (GUSB) (instead of UBC) to control for input RNA. […] 10 compounds met these criteria and were forwarded from the Replication into the Confirmation Assay.
The ten forwarded compounds were used in the Confirmation Assay. For each compound ten wells were treated with drug and compared to ten wells treated with DMSO alone. RNA was extracted using TRIzol® following the manufacturers protocol (Life Technologies). Freshly ordered compounds were used. […] Six compounds met these criteria and were forwarded from the Confirmation Assay to the ELISA Assay stage (see below).
Total RNA from flash-frozen mice brain tissue, rodent primary cells, human neuroblastoma cells and iPSC-derived neuronal cells was isolated using TRIzol® (Life Technologies) following the manufacturer's protocol. […]

[2] = test system: H3K27 acetylation of SNCA promoter and enhancers; experiment: chromatin immunoprecipitation for H3K27ac at SNCA promoter and enhancers in SK-N-MC cells; assay type: cell-based, human; details: clenbuterol 10 μM, valproic acid 100 μM, propranolol 100 μM, vs vehicle
Protocol: Chromatin immunoprecipitation (ChIP) assays were performed using the Simple ChIP Enzymatic Chromatin IP kit protocol as recommended by the manufacturer (Cell Signaling Technology) with slight modifications. Briefly, ChIPs were performed on asynchronously growing SK-N-MC cells treated with clenbuterol (10 μM), valproic acid (100 μM) or propranolol (100 μM). Cross-linking was carried out with 1% formaldehyde for 10 min at room temperature. Cross-linking was subsequently quenched by adding glycine to a final concentration of 1× for 5 min. Cells were collected and washed twice with PBS, then resuspended in 2 mL of lysis buffer (as described in the protocol). After 10 min on ice, cells were treated with micrococcal nuclease and then sonicated to obtain DNA fragments of ˜500 bp as determined by agarose gel electrophoresis with ethidium bromide staining. Protein-DNA complexes were isolated by centrifugation at 10,000 rpm for 10 min. Supernatants with protein-DNA complexes were incubated overnight with rabbit polyclonal antibody directed against acetylated H3K27 (Abcam). Normal rabbit IgG was used as a negative control and Histone H3 rabbit mAb (ChIP formulated) as positive control. 2% of sample was saved as input. Antibody-protein-DNA complexes were further incubated for 2 hours with 30 μl of ChIP-grade Protein G magnetic beads to isolate antibody bound fractions of chromatin. Immuno-complexes were washed with the buffers provided and as described in the kit. Protein-DNA complexes were eluted and cross-links of pull down fractions and inputs (2% of total IP fraction) were reversed by 2 hours incubation in Proteinase K and 5 M NaCl at 65° C. […] 2 μl of immunoprecipitated DNA was analyzed by qPCR using a Power SYBR Green PCR Master mix (Applied Biosystems by Life technologies) on an ABI 7900HT instrument (Applied Biosystems) with the following temperature profile: 3 min of enzyme activation at 95° C. followed by 40 cycles of 95° C. for 15 s and 60° C. for 60 s. Sample from three independent immunoprecipitation assays were analyzed.

Compound | SNCA mRNA expression, dose dependence ([1]; SK-N-MC cells, indicated doses, 48 hours) | endogenous SNCA mRNA under β2AR antagonism ([1]; SK-N-MC cells) | effect of co-treatment on clenbuterol's SNCA expression-lowering effects ([1]; SK-N-MC cells, co-treatment with clenbuterol) | H3K27 acetylation across SNCA promoter and two intronic enhancers (ChIP) [2] | SNCA mRNA levels after 14 days ([1]; SK-N-MC cells, 10 μM, 14 days) | α-synuclein mRNA levels with increasing concentrations ([1]; SK-N-MC cells, 5, 10, 20 μM, four days) | relative SNCA mRNA abundance (with H3K27Ac blot) ([1]; SK-N-MC cells, vs vehicle-treated cells)
CC(C)(C)NCC(O)c1ccc(O)c(CO)c1 (centres unmarked) [Salbutamol, salbutamol] | lowered SNCA mRNA expression in a dose-dependent manner |  |  |  |  |  | 
CC(C)NCC(O)COc1cccc2ccccc12 (centres unmarked) [Propranolol, propranolol] |  | increased | blocked clenbuterol's SNCA expression-lowering effects | increased H3K27Ac |  |  | 
CC(C)(C)NCC(O)c1cc(Cl)c(N)c(Cl)c1 (centres unmarked) [clenbuterol] |  |  |  | reduced H3K27 acetylation | lowered | decrease in α-synuclein mRNA | decreased
